Results taken from US9133158B2, “Bicyclic dihydroisoquinoline-1-one derivatives” (Hoffmann-La Roche Inc., priority 2011, dated 2015).

Each compound was assayed against T1, human CYP11B2 (Homo sapiens, UniProt P19099) (assay: G-402 cellular enzyme assay, human CYP11B2 (aldosterone release, HTRF)). Details: G-402 cells, 1 μM Deoxycorticosterone.
T1 construct: expressed in transfected cells
T1 sequence (P19099 25-503): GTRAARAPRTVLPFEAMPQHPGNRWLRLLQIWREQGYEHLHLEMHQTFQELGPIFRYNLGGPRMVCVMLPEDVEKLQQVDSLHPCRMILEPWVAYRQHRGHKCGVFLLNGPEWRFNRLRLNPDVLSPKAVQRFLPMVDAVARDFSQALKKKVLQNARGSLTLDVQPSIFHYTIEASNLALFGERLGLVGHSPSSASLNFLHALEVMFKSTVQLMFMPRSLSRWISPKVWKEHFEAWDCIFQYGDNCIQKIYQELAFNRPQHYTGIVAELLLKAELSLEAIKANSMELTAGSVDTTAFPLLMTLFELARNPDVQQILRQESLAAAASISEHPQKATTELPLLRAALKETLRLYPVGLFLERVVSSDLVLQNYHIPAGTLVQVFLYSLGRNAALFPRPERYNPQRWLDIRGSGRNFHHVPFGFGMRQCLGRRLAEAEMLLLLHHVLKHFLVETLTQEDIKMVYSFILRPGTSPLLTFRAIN
Type: cell-based
Description: Herein we identified the use of the G-402 cell line as a host cell to ectopically express (transiently or stably) enzymes of the CYP11 family. Specifically we developed stable G-402 cells expressing ectopically human CYP11B1, human CYP11B2, human CYP11A1, cynmolgus CYP11B1 or cynomolgus CYP11B2 enzyme activity. Importantly the identified cell line G-402 expresses co-factors (adrenodoxin and adrenodoxin reductase) important for the activity of the CYP11 family and no relevant enzyme activity of the CYP11 family (in comparison to H295R cells) was detected in these cells. Therefore the G-402 cell line is uniquely suited as a host cell for the ectopic expression of enzymes from the CYP11 family.
G-402 cells can be obtained from ATCC(CRL-1440) and were originally derived from a renal leiomyoblastoma.
The expression plasmids contain the ORF for either human/cyno CYP11B1 or CYP11B2 under the control of a suitable promoter (CMV-promoter) and a suitable resistance marker (neomycin). Using standard techniques the expression plasmid is transfected into G-402 cells and these cells are then selected for expressing the given resistance markers. Individual cell-clones are then selected and assessed for displaying the desired enzymatic activity using 11-Deoxycorticosterone (Cyp11B2) or 11-Deoxycortisol (Cyp11B1) as a substrate.
G-402 cells expressing CYP11 constructs were established as described above and maintained in McCoy's 5a Medium Modified, ATCC Catalog No. 30-2007 containing 10% FCS and 400 μg/ml G418 (Geneticin) at 37° C. under an atmosphere of 5% CO2/95% air.
Cellular enzyme assays were performed in DMEM/F12 medium containing 2.5% charcoal treated FCS and appropriate concentration of substrate (0.3-10 uM 11-Deoxycorticosterone, 11-Deoxycortisol or Corticosterone). For assaying enzymatic activity, cells were plated onto 96 well plates and incubated for 16 h. An aliquot of the supernatant is then transferred and analyzed for the concentration of the expected product (Aldosterone for CYP11B2; Cortisol for CYP11B1). The concentrations of these steroids can be determined using HTRF assays from CisBio analyzing either Aldosterone or Cortisol.
Inhibition of the release of produced steroids can be used as a measure of the respective enzyme inhibition by test compounds added during the cellular enzyme assay. The dose dependent inhibition of enzymatic activity by a compound is calculated by means of plotting added inhibitor concentrations (x-axes) vs. measured steroid/product level (y-axes). The inhibition is then calculated by fitting the following 4-parameter sigmoidal function (Morgan-Mercer-Flodin (MMF) model) to the raw data points using the least squares method:
[formula] wherein, A is the maximum y value, B is the EC50 factor determined using XLFit, C is the minimum y value and D is the slope value.
EC50 values for compounds claimed herein were tested with the G402-based assay system described. Cyp11B2 enzyme activity was tested in presence of 1 μM Deoxycorticosterone and variable amounts of inhibitors; Cyp11B1 enzyme activity was tested in presence of 1 μM Deoxycortisol and variable amounts of inhibitors.
Work on `CC(=O)NC1CCc2c1cncc2N1Cc2cc(Cl)ccc2C1=O` (single isomer, unassigned; (-)) [Example 318, (−)-N—[(S or R)-4-(5-Chloro-1-oxo-1,3-dihydro-isoindol-2-yl)-6,7-dihydro-5H-[2]pyrindin-7-yl]-acetamide] yielded an EC50 greater than 30 µM.
`O=C1c2ccc(Cl)cc2CCN1c1cncc(N2C(=O)CC[C@H]2CO)c1` [Example 50, 6-Chloro-2-[5-((S)-2-hydroxymethyl-5-oxo-pyrrolidin-1-yl)-pyridin-3-yl]-3,4-dihydro-2H-isoquinolin-1-one] was tested, and the EC50 was 1.5 µM.
For `CCC(=O)N[C@H]1CCCc2c1cncc2N1C(=O)c2ccc(Cl)cc2[C@@H]1CC` (single isomer, unassigned) [Example 351, N-[(S or R)-4-((S or R)-5-Chloro-3-ethyl-1-oxo-1,3-dihydro-isoindol-2-yl)-5,6,7,8-tetrahydro-isoquinolin-8-yl]-propionamide], the EC50 was 3.66 µM.
Work on `CN1CCN(Cc2ccncc2N2CCc3cc(Cl)ccc3C2=O)CC1` [Example 280, 6-Chloro-2-[4-(4-methyl-piperazin-1-ylmethyl)-pyridin-3-yl]-3,4-dihydro-2H-isoquinolin-1-one] yielded an EC50 of 1.8 µM.
Work on `O=C1c2ccc(Cl)cc2CCN1c1cncnc1` [Example 51, 6-Chloro-2-pyrimidin-5-yl-3,4-dihydro-2H-isoquinolin-1-one] yielded an EC50 of 2.68 µM.
Compound `COc1ccc2c(c1)CCN(c1cccnc1)C2=O` [Example 94, 6-Methoxy-2-pyridin-3-yl-3,4 dihydro-2H-isoquinolin-1-one] has an EC50 of 2.06 µM.
For `CC(=O)N[C@H]1CCCc2c1cncc2N1C(=O)c2ccc(Cl)cc2[C@H]1C1CC1` (single isomer, unassigned) [Example 373, N-[(S or R)-4-((R or S)-5-Chloro-3-cyclopropyl-1-oxo-1,3-dihydro-isoindol-2-yl)-5,6,7,8-tetrahydro-isoquinolin-8-yl]-acetamide], the EC50 was greater than 30 µM.
`CC(=O)NC1CCc2c1cncc2N1CCc2cc(Cl)ccc2C1=O` (single isomer, unassigned) [Example 332, N-[(R or S)-4-(6-Chloro-1-oxo-3,4-dihydro-1H-isoquinolin-2-yl)-6,7-dihydro-5H-[2]pyrindin-7-yl]-acetamide] was tested, and the EC50 was 14.8 µM.
With `CCOc1ccc2c(n1)C(C)(C)N(c1cncc(CNc3cc[nH]n3)c1)C2=O` [Example 385, 2-Ethoxy-7,7-dimethyl-6-{5-[(1H-pyrazol-3-ylamino)-methyl]-pyridin-3-yl}-6,7-dihydro-pyrrolo[3,4-b]pyridin-5-one] the EC50 was 0.893 µM.
`CC(=O)NC1CCCc2c1cncc2N1CCc2cc(Cl)ccc2C1=O` (single isomer, unassigned) [Example 320, N-((R or S)-6-Chloro-1-oxo-3,4,5′,6′,7′,8′-hexahydro-1H-[2,4′]biisoquinolinyl-8′-yl)-acetamide] was tested, and the EC50 was 8.03 µM.
`CC1Cc2cc(Cl)ccc2C(=O)N1c1cccnc1` (stereo not shown) [Example 88, 6-Chloro-3-methyl-2-pyridin-3-yl-3,4-dihydro-2H-isoquinolin-1-one] was tested, and the EC50 was 0.761 µM.
Compound `CCC(=O)N[C@@H]1CCc2c1cncc2N1C(=O)c2ccc(Cl)cc2[C@@H]1C` (single isomer, unassigned) [Example 375, N-[(R or S)-4-((S or R)-5-Chloro-3-methyl-1-oxo-1,3-dihydro-isoindol-2-yl)-6,7-dihydro-5H-[2]pyrindin-7-yl]-propionamide] has an EC50 of 5.62 µM.
With `CC(=O)N[C@@H]1CCCc2c1cncc2N1C(=O)c2ccc(Cl)cc2[C@@H]1C1CC1` (single isomer, unassigned) [Example 374, N-[(R or S)-4-((S or R)-5-Chloro-3-cyclopropyl-1-oxo-1,3-dihydro-isoindol-2-yl)-5,6,7,8-tetrahydro-isoquinolin-8-yl]-acetamide] the EC50 was 0.354 µM.
`CC(O)c1c(F)cncc1N1CCc2cc(Cl)ccc2C1=O` (stereo not drawn) [Example 62, 6-Chloro-2-[5-fluoro-4-(l-hydroxy-ethyl)-pyridin-3-yl]-3,4-dihydro-2H-isoquinolin-1-one] showed an EC50 of 0.935 µM.
`CCS(=O)(=O)NCc1cncc(N2CCc3cc(Cl)ccc3C2=O)c1` [Example 25, Ethanesulfonic acid [5-(6-chloro-1-oxo-3,4-dihydro-1H-isoquinolin-2-yl)-pyridin-3-ylmethyl]-amide] showed an EC50 of 0.401 µM.
Compound `CNC(=O)c1cncc(N2CCc3cc(Cl)ccc3C2=O)c1` [Example 43, 5-(6-Chloro-1-oxo-3,4-dihydro-1H-isoquinolin-2-yl)-N-methyl-nicotinamide] has an EC50 of 0.372 µM.
`CS(=O)(=O)NC1CCc2c1cncc2N1CCc2cc(Cl)ccc2C1=O` (single isomer, unassigned) [Example 330, N-[(S or R)-4-(6-Chloro-1-oxo-3,4-dihydro-1H-isoquinolin-2-yl)-6,7-dihydro-5H-[2]pyrindin-7-yl]-methanesulfonamide] gave an EC50 greater than 30 µM.
`CC1c2ccc(Cl)cc2C(=O)N1c1cccnc1` (stereo not shown) [Example 119, 6-Chloro-3-methyl-2-pyridin-3-yl-2,3-dihydro-isoindol-1-one] was tested, and the EC50 was 0.722 µM.
For `CCS(=O)(=O)NC1CCc2c1cncc2N1Cc2cc(Cl)ccc2C1=O` (single isomer, unassigned) [Example 337, Ethanesulfonic acid [(S or R)-4-(5-chloro-1-oxo-1,3-dihydro-isoindol-2-yl)-6,7-dihydro-5H-[2]pyrindin-7-yl]-amide], the EC50 was 24.3 µM.
`CC(=O)N[C@H]1CCCc2c1cncc2N1C(=O)c2ccc(Cl)cc2[C@@H]1C1CC1` (single isomer, unassigned) [Example 371, N-[(S or R)-4-((S or R)-5-Chloro-3-cyclopropyl-1-oxo-1,3-dihydro-isoindol-2-yl)-5,6,7,8-tetrahydro-isoquinolin-8-yl]-acetamide] was tested, and the EC50 was 4.26 µM.
`CCC(=O)Nc1cncc(N2CCc3cc(Cl)ccc3C2=O)c1` [Example 225, N-[5-(6-Chloro-1-oxo-3,4-dihydro-1H-isoquinolin-2-yl)-pyridin-3-yl]-propionamide] showed an EC50 of 2.55 µM.
`COC(OC)c1ccncc1N1CCc2cc(Cl)ccc2C1=O` [Example 61, 6-Chloro-2-(4-dimethoxymethyl-pyridin-3-yl)-3,4-dihydro-2H-isoquinolin-1-one] showed an EC50 of 2.83 µM.
For `C[C@@H]1Cc2cc(Cl)ccc2C(=O)N1c1cccnc1` [Example 91, (R)-6-Chloro-3-methyl-2-pyridin-3-yl-3,4-dihydro-2H-isoquinolin-1-one], the EC50 was 0.395 µM.
Compound `CN(C)C(=O)COc1cncc(N2CCc3cc(Cl)ccc3C2=O)c1` [Example 256, 2-[5-(6-Chloro-1-oxo-3,4-dihydro-1H-isoquinolin-2-yl)-pyridin-3-yloxy]-N,N-dimethyl-acetamide] has an EC50 of 0.774 µM.
With `O=c1c2ccc(Cl)cc2ccn1-c1cncc(F)c1` [Example 54, 6-Chloro-2-(5-fluoro-pyridin-3-yl)-2H-isoquinolin-1-one] the EC50 was 0.212 µM.
Compound `CC1(C)CN(c2cccnc2)C(=O)c2ccc(Cl)cc21` [Example 102, 6-Chloro-4,4-dimethyl-2-pyridin-3-yl-3,4-dihydro-2H-isoquinolin-1-one] has an EC50 of 1.54 µM.
In the case of `CC(C)(Nc1cncc(N2CCc3cc(Cl)ccc3C2=O)c1)C(=O)O` [Example 227, 2-[5-(6-Chloro-1-oxo-3,4-dihydro-1H-isoquinolin-2-yl)-pyridin-3-ylamino]-2-methyl-propionic acid], the EC50 is reported as 4.21 µM.
`O=C1c2ccc(Cl)cc2CCN1c1cncc(-c2ccc(Cl)c(Cl)c2)c1` [Example 241, 6-Chloro-2-[5-(3,4-dichloro-phenyl)-pyridin-3-yl]-3,4-dihydro-2H-isoquinolin-1-one] gave an EC50 of 0.582 µM.
